Reference: patent publication US20060074243A1, “Hydroxamic acid and amide compounds and their use as protease inhibitors” (Pharmacia Corporation, priority 2002, published 2006)
pKi: −log10 of the molar value.

What was measured:
Test in all cases: In vitro MMP inhibition analysis (fluorogenic peptide substrate cleavage), Ki
Format in all cases: biochemical
Conditions in all cases: Table 2
Human recombinant MMP-1 = molecular target: T1, Human recombinant MMP-1 (Homo sapiens, UniProt P03956)
T1 construct: made in house; host or cells: MMP-1-transfected HT-1080 cells (spent media)
T1 sequence (P03956 100-469): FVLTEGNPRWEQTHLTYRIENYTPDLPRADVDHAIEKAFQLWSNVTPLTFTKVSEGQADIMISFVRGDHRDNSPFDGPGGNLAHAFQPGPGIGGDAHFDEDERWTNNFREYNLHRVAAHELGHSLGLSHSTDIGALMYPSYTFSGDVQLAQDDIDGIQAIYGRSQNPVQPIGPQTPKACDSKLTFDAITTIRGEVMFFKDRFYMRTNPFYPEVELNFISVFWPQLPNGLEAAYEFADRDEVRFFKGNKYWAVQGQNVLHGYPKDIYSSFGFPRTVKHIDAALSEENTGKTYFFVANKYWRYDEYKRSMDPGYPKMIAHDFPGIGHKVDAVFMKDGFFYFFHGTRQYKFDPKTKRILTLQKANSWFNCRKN
Summary of the method: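 APMA- or trypsin-activated recombinant human MMP-1 (purified from transfected HT-1080 medium) with 4 μM MCA/Dpa quenched fluorogenic peptide, 1 h at room temperature in Tris/NaCl/CaCl2 buffer pH 7.5; fluorescence ex 330/em 420 nm. Ki from Morrison-equation fit of rates, substrate at or below Km, uncorrected.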

Human recombinant MMP-2 = molecular target: T2, Human recombinant MMP-2 (Homo sapiens, UniProt P08253)
T2 construct: made in house; host or cells: MMP-2-transfected p2AHT2 cells
T2 sequence (P08253 110-660): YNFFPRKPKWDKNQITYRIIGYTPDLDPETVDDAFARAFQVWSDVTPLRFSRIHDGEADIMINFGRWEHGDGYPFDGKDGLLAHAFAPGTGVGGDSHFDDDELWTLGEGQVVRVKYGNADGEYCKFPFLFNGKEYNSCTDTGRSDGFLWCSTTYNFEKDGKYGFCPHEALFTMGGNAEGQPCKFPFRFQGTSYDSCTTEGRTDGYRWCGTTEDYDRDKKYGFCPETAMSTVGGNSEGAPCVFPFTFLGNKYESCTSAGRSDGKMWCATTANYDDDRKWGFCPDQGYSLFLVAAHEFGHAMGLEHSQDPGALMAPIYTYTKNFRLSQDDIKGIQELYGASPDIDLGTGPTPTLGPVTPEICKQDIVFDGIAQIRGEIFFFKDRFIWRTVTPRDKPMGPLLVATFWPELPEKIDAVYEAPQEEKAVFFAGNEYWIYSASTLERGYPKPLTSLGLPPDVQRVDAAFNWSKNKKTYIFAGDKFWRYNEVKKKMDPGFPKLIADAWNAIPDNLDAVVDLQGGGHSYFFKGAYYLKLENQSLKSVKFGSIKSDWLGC
Summary of the method: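 Human recombinant MMP-2 from transfected p2AHT2 cells was activated with APMA or trypsin and incubated 1 h at room temperature with compounds and 4 μM MCA-RPLGL(Dpa)ARER-NH2. Buffer was pH 7.5 Tris/NaCl/CaCl2, and fluorescence was read at ex 330/em 420 nm. Ki was fitted by Morrison's equation without substrate correction.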

Human recombinant MMP-9 = molecular target: T3, Human recombinant MMP-9 (Homo sapiens, UniProt P14780)
T3 construct: made in house; host or cells: MMP-9-transfected HT1080 cells (spent media)
Summary of the method: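 Recombinant MMP-9 purified from transfected HT1080 cell media, activated with APMA, trypsin or recombinant MMP-3, assayed in Tris buffer pH 7.5 with CaCl2 and 4 μM fluorogenic MCA/Dpa peptide, 1 h at room temperature (ex 330/em 420 nm). Ki from Morrison-equation regression of velocity; substrate at or below Km, uncorrected.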

Human recombinant MMP-14 = molecular target: T4, Human recombinant MMP-14 (Homo sapiens, UniProt P50281)
T4 construct: The catalytic domain enzyme was expressed in E. coli inclusion bodies, solubilized in urea; made in house
Summary of the method: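 Refolded catalytic domain of MMP-14 expressed in E. coli, activated with APMA or trypsin, incubated 1 h at room temperature with 4 μM MCA-peptide substrate in Tris buffer pH 7.5 with CaCl2. Cleavage rate followed by fluorescence (ex 330/em 420 nm). Ki from Morrison-equation fit; substrate at or below Km, so no substrate correction.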

T3 sequence (P14780 107-707 limits assumed): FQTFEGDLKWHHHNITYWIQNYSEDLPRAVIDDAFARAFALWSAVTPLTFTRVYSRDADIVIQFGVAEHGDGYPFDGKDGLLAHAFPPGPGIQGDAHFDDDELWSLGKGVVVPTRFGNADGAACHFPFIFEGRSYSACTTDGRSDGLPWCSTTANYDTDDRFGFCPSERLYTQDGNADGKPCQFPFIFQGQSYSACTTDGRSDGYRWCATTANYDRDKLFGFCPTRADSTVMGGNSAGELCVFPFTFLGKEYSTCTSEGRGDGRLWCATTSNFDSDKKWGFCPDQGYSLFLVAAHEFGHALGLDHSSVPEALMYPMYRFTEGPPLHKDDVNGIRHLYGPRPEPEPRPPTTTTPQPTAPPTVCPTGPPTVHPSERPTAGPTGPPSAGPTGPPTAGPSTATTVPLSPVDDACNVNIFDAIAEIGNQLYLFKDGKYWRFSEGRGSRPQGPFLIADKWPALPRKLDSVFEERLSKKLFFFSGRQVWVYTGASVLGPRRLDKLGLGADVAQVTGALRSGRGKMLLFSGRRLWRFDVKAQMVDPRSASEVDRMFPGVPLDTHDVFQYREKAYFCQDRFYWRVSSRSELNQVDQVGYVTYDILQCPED

Q: Which results are given for `O=C(NO)C1(S(=O)(=O)c2ccc(-c3cnc(OCC(F)(F)C(F)(F)F)cn3)cc2)CCN(C2CC2)CC1` [Example 156]?
A: pKi (Human recombinant MMP-1): 5.13; pKi (Human recombinant MMP-2): 9.41; pKi (Human recombinant MMP-9): 9.32; pKi (Human recombinant MMP-14): 5.94

Q: `COCCN1CCC(C(=O)NO)(S(=O)(=O)c2ccc(-c3cnc(OCC(F)(F)C(F)(F)F)cn3)cc2)CC1` [Example 157] was tested. Which pKi (Human recombinant MMP-1) did it give?
A: 5.02

Q: What about the pKi (Human recombinant MMP-2) of the same molecule?
A: 9.43

Q: What about the pKi (Human recombinant MMP-9) of the same molecule?
A: 9.38

Q: And the pKi (Human recombinant MMP-14)?
A: 5.91

Q: How did the pKi (Human recombinant MMP-1) turn out when `O=CN1CCC(C(=O)NO)(S(=O)(=O)c2ccc(-c3ccc(CCCC(F)(F)F)cn3)cc2)CC1` [Example 159] was run?
A: 5.46

Q: What about the pKi (Human recombinant MMP-2) of the same molecule?
A: 10.00

Q: What about the pKi (Human recombinant MMP-9) of the same molecule?
A: 9.42

Q: What about the pKi (Human recombinant MMP-14) of the same molecule?
A: 6.22

Q: What does the source list for `O=C(NO)C1(S(=O)(=O)c2ccc(-c3cnc(-c4cccs4)cn3)cc2)CCOCC1` [Example 160]?
A: pKi (Human recombinant MMP-1): < 5.00; pKi (Human recombinant MMP-2): 8.70; pKi (Human recombinant MMP-9): 8.50; pKi (Human recombinant MMP-14): < 5.00

Q: Which results are given for `O=C(NO)C1(S(=O)(=O)c2ccc(-c3ccc(CCC(F)(F)F)cc3)cc2)CCOCC1` [Example 161]?
A: pKi (Human recombinant MMP-1): 5.47; pKi (Human recombinant MMP-2): 9.82; pKi (Human recombinant MMP-9): 9.68; pKi (Human recombinant MMP-14): 6.52

Q: How did the pKi (Human recombinant MMP-1) turn out when `O=C(NO)C1(S(=O)(=O)c2ccc(-c3cnc(C4CCCC4)cn3)cc2)CCOCC1` [Example 162] was run?
A: < 5.00

Q: And the pKi (Human recombinant MMP-2)?
A: 8.51

Q: And the pKi (Human recombinant MMP-9)?
A: 7.47

Q: What about the pKi (Human recombinant MMP-14) of the same molecule?
A: 5.13

Q: Which results are given for `CCOc1ccc(-c2ccc(S(=O)(=O)C3(C(=O)NO)CCOCC3)cc2)cc1` [Example 163]?
A: pKi (Human recombinant MMP-1): 6.49; pKi (Human recombinant MMP-2): 10.70; pKi (Human recombinant MMP-9): 10.52; pKi (Human recombinant MMP-14): 7.25

Q: How did the pKi (Human recombinant MMP-1) turn out when `COCC#Cc1cnc(-c2ccc(S(=O)(=O)C3(C(=O)NO)CCOCC3)cc2)cn1` [Example 164] was run?
A: 5.60

Q: And the pKi (Human recombinant MMP-2)?
A: 9.22

Q: What about the pKi (Human recombinant MMP-9) of the same molecule?
A: 9.24

Q: And the pKi (Human recombinant MMP-14)?
A: 6.82
